The series concerns MDA-MB-231 cells. Kind of series: In vitro cytotoxicity, MTT assay. The note with it: various concentrations of PTX, 72 h. For orientation: Tetrazolium assays rely on reduction of a dye to a coloured formazan, in cell work by metabolically active cells.

Regarding `CC(=O)O[C@H]1C(=O)[C@@]2(C)[C@H]([C@H](OC(=O)c3ccccc3)[C@]3(O)C[C@H](OC(=O)[C@H](O)[C@@H](NC(=O)c4ccccc4)c4ccccc4)C(C)=C1C3(C)C)[C@]1(OC(C)=O)CO[C@@H]1C[C@@H]2O` [PTX, Paclitaxel], the Cytotoxicity entry is recorded as “exhibited cytotoxicity on MDA-MB-231 cells in a dose-dependent manner”.
